According to patent US5264427A, “20-substituted pregnene derivatives and their use as androgen synthesis inhibitors” (priority 1992, dated 1993):
“Also recorded” adds a separate entry of the source. Where two headings read alike, the source gives them in different places.

What was measured:
17(alpha)-hydroxylase = molecular target: T1, 17(alpha)-hydroxylase (Rattus norvegicus, UniProt P11715); experiment: 17(alpha)-hydroxylase assay, rat testicular microsomes (Example 1, Table 1); assay type: biochemical
T1 construct: approximately 1 mg rat testicular microsomal protein in 450 microliters phosphate buffer; from tissue; host or cells: testes of adult male Sprague-Dawley rats (Charles River), microsomal fraction
T1 sequence (P11715 1-507): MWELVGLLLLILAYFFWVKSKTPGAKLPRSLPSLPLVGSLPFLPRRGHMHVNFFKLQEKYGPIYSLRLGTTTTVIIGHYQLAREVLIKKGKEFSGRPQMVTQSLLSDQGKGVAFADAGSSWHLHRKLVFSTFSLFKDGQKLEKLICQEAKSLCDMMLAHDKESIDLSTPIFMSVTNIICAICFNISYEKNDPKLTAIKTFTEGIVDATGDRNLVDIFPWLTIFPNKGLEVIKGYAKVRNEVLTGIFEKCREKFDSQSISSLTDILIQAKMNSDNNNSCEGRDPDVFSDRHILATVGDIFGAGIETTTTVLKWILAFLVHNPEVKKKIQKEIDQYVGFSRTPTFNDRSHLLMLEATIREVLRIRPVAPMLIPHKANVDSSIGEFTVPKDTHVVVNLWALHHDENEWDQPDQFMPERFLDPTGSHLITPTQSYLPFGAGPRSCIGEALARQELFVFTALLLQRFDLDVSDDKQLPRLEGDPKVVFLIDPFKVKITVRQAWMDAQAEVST
Description: (§1) Testes were obtained from 220°-250g adult male Sprague-Dawley rats (Charles River), immediately frozen in liquid nitrogen and stored at -70° C. After thawing in the ice bath, the testes were minced and homogenized in 0.25M sucrose (1:4 w/v), then centrifuged at 12,000×gfor 30 min and the resulting supernatant centrifuged at 105,000×g for one hour. The supernatant was then decanted and the pellet containing the microsomes was resuspended in 0.1M sodium phosphate buffer (pH 7.4) (2.5g wet weight of tissue/ 2 ml buffer). All the above procedures were performed at 4C. The microsomal fraction was stored at -70C. Just before use, microsomes were diluted to the concentration of 1.25 g wet weight of tissue/10 ml phosphate buffer.
(§2) The incubation was stopped by cooling the mixture in an ice bath and adding 2 ml ether to each incubation tube. The ^3 H-labelled steriods (progesterone P4; 17(alpha)-hydroxyprogesterone 170HP4, androstenedione A and testosterone T, 8,000dpm each) were added as recovery markers and the steroids were extracted with ether (2 ml×3). The ether was evaporated with air. Steroid carriers (P4, 17-0HP4, A and T, 4 micrograms each) were added to the extracts which were then applied to thin layer chromatography (TLC) plates for separation of the steroids. After development for 1.5 hours in hexanes/ethyl acetate, 65:35(v/v), the steroids were located by UV (254 nm) absorption, scraped off and eluted into scintillation vials with ether. After evaporating the ether, the steroids were dissolved in counting cocktail and the radioactivity measured. The recovery of steroids calculated from the ^3 H-labelled markers was between 80 to 90 percent and the enzyme activity was determined from the percentage conversion of [4-C^14 ]-progesterone to 170HP4, A and T.
The purity of each steroid on the TLC was confirmed by two methods. First, the percent conversion of each compound in a half amount of the extract from one incubation were compared after separation of TLC and HPLC. The HPLC procedure has been described in detail previously. The solvent system used was methanol/acetonitrile/water (15.6:36.4:48). The flow rate was 1 ml/min and pressure 2200 psi, the retention time of these steroids was P4 38.3 min, 170HP4 15.93 min, A 14.33 min, and T 11.43 min, respectively. Secondly, after the first separation by TLC in solvent system A (hexane/ethyl acetate 65:35), the eluted steroids were chromatographed in solvent system B (chloroform/acetonitrile, 85:15).
^1 Incubation of [4^14 Cprogesterone (various concentration,
microsome (approximately 1 mg protein) and NADPH generating system was
carried out at 37 C. under O2 for 30 min. The apparent Km for this

C17,20-lyase = molecular target: T2, C17,20-lyase (Rattus norvegicus, UniProt P11715); experiment: C17,20-lyase assay, rat testicular microsomes (Example 1, Table 1); assay type: biochemical
T2 construct: approximately 1 mg rat testicular microsomal protein in 450 microliters phosphate buffer; from tissue; host or cells: testes of adult male Sprague-Dawley rats (Charles River), microsomal fraction
T2 sequence (P11715 1-507): T1 sequence (P11715 1-507)
Description: as §1
C^17,20 -Lyase: The procedure for measurement of the C17,20 -lyase was similar to the procedure for the 17(alpha)-hydroxylase, except that the substrate was 17(alpha)-hydroxy-[[1,2,6,7-^3 H]-progesterone (various concentration, 10^5 dpm) and recovery markers were [4-^14 C]-labelled steroids. Carrier steroids (170HP4, A and T) were also added to locate the product areas on the TLC plates. The enzyme activity was determined from the percent conversion of 17(alpha)-hydroxy-[1,2,6,7-3H]-progesterone to A and T.
The purity of each steroid on the TLC was confirmed by two methods. First, the percent conversion of each compound in a half amount of the extract from one incubation were compared after separation of TLC and HPLC. The HPLC procedure has been described in detail previously. The solvent system used was methanol/acetonitrile/water (15.6:36.4:48). […] Secondly, after the first separation by TLC in solvent system A (hexane/ethyl acetate 65:35), the eluted steroids were chromatographed in solvent system B (chloroform/acetonitrile, 85:15).

[1] = molecular target: T3, 17(alpha)-hydroxylase/C17,20-lyase (Rattus norvegicus, UniProt P11715); experiment: Hydroxylase/lyase assay, rat testis homogenates, [21-14C]-progesterone side-chain cleavage (Examples 2 and 3, Table 2); assay type: biochemical; settings: progesterone 40 microM, 45 min
T3 construct: with rat testis homogenates (2.7 mg protein in 0.5 ml phosphate buffer); from tissue; host or cells: rat testis homogenate
T3 sequence (P11715 1-507): T1 sequence (P11715 1-507)
Description: Compounds I-16 and I-25 were synthesized according to known procedures. The compounds were then assayed for their ability to inhibit the 17(alpha)-hydroxylase/C17,20 -lyase enzyme and the 5(alpha)-reductaseenzyme. The hydroxylase/lyase assay was carried out by incubation of [21-^14 C]-progesterone (40 microM, 70,000 dpm) and candidate inhibitors with rat testis homogenates (2.7 mg protein in 0.5 ml phosphate buffer), NADPH generating system under oxygen for 45 minutes. The enzyme activity was measured according to the conversion of progesterone to the product of C17,20 -side chain cleavage ([2-^14 C]-acetic acid). […] The results were based on the TLC separation.

[2] = molecular target: T4, 17(alpha)-hydroxylase/17,20-lyase enzyme (Rattus norvegicus, UniProt P11715); experiment: 17(alpha)-hydroxylase/17,20-lyase inhibition, rat testicular microsomes (Example 1); assay type: biochemical; settings: result in words
T4 sequence (P11715 1-507): T1 sequence (P11715 1-507)
Description: as §1
as §2, with “After development for 1.5 hours in hexanes/ethyl acetate, 65:35(v/v), the steroids were located by UV (254 nm) absorption, scraped off and eluted into scintillation vials with ether.” left out
C^17,20 -Lyase: The procedure for measurement of the C17,20 -lyase was similar to the procedure for the 17(alpha)-hydroxylase, except that the substrate was 17(alpha)-hydroxy-[[1,2,6,7-^3 H]-progesterone (various concentration, 10^5 dpm) and recovery markers were [4-^14 C]-labelled steroids. […] The enzyme activity was determined from the percent conversion of 17(alpha)-hydroxy-[1,2,6,7-3H]-progesterone to A and T.

DHT in the prostate = experiment: In vivo study: DHT concentration in the prostate of male rats (RIA); parameters: species or system rat (male Sprague-Dawley); settings: 50 mg/kg/day sc, 21 days
Description: (§3) A group of 8 adult male Sprague-Dawley rats were injected sc with vehicle (0.3% hydroxypropyl cellulose, HPC) and a group of 8 rats were injected sc with a suspension of the compound I-23 in HPC (50 mg/kg body weight/day) every 24 hours for 21 days. The rats were autopsied at the last day, the ventral prostates and blood samples were collected. The prostate tissues were stored at -70° C. and the sera were separated first by centrifugation at 2,200 rpm, then stored at -15° C. until assayed. The DHT levels in the rat prostates were measured by radioimmunoassay (RIA) using testosterone/dihydrotestosterone RIA kit from Amersham Co. (Illinois). The testosterone levels in the rat sera were measured by using the [^125 I]-testosterone diagnostic kits (ICN Biochemics Inc.). The results obtained were analyzed by using Student t test.
(§4) The 4-pregnen-3-one-20(beta)-aldoxime was also studied for its effect on male rats in vivo. Male rats were daily treated with the compound at the dose of 50 mg/kg body weight injected subcutaneously for 21 days. […] The serum testosterone of these rats was measured as well.

serum testosterone = experiment: In vivo study: serum testosterone of male rats (RIA); parameters: species or system rat (male Sprague-Dawley); settings: 50 mg/kg/day sc, 21 days
Description: as §3, §4

[3] = molecular target: T5, rat testicular 17(alpha)-hydroxylase/C17,20-lyase (Rattus norvegicus, UniProt P11715); experiment: Hydroxylase/lyase assay, rat testicular homogenates, [21-14C]progesterone (Example 4, Table 3); assay type: biochemical; settings: 0.75 h
T5 construct: rat testicular homogenates (prepared from 220-250g adult male Sprague-Dawley rats); from tissue; host or cells: testes of adult male Sprague-Dawley rats, homogenate
T5 sequence (P11715 1-507): T1 sequence (P11715 1-507)
Description: The assay was performed by incubation of rat testicular homogenates (prepared from 220-250g adult male Sprague-Dawley rats, approx. 3.5 mg protein) with [21-^14 C]progesterone (40uM, 5×10^4 dpm), NADPH generating system and candidate inhibitors in phosphate buffer (pH 7.4, total volume 500ul) under oxygen for 45 min at 37° C. Two ml of choloroform was added to each tube to stop the reaction. The steriods were extracted with chloroform and the aqueous phase was treated with charcoal. The side chain cleavage product [2-^14 C]acetic acid in the aqueous phase was mixed with 3a70B counting cocktail and counted on the Rack Beta II liquid scintillation counter. The enzyme activity was determined from the conversion of progesterone P4 to [2-^14 C]acetic acid.

[4] = in vivo; cited from earlier work
5(alpha)-reductase = molecular target: T6, 5(alpha)-reductase (Homo sapiens, UniProt P31213); experiment: 5(alpha)-reductase assay, human prostatic (BPH) tissue homogenates (Example 1, Table 1); settings: result in words
T6 sequence (P31213 1-254): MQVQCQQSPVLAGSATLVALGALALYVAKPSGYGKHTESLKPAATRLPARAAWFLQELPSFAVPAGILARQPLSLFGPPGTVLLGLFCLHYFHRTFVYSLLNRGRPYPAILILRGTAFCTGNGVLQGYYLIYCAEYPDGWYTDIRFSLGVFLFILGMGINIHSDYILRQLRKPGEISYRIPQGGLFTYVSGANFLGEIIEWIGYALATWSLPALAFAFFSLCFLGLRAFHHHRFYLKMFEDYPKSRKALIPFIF
Description: Tissue was homogenized in 0.1M phosphate buffer (60 mg wet weight of tissue/ ml buffer, pH 7.4) at 4C and the homogenates were diluted with an equal volume of buffer before use.
5(alpha)-reductase: [7-^3 H]testosterone (10^6 dpm) was incubated for 30 minutes at 37° C. with the NADPH generating system, homogenate of human prostatic tissue (30mg wet weight of tissue/1 ml buffer) and the candidate inhibitors at concentrations ranging from 0.1-10uM. […] The steroids were extracted with ether and the extracts chromatographed on TLC (chloroform: ether 95:5). […] The steroids were scraped from the plate and radioactivity measured.

With `CCN(CC)C(=O)[C@H]1CC[C@H]2[C@@H]3CC[C@H]4N(C)C(=O)CC[C@]4(C)[C@H]3CC[C@]12C` [Compound 4-MA, N,N-diethyl-4-methyl-3-oxo-4-aza-5(alpha)-androstane-17(beta)-carboxyamide, reference compound] the “17(alpha)-hydroxylase Ki” value (17(alpha)-hydroxylase; rat testicular microsomes, progesterone substrate, 30 min, 37 C, N.I. = no inhibition) was “N.I”, the “C17,20-lyase Ki” value (C17,20-lyase; rat testicular microsomes, 17(alpha)-hydroxyprogesterone substrate, 30 min, 37 C, N.I. = no inhibition) was “N.I” and the “% Inhibition of 17(alpha)hydroxylase/lyase, [I] = 10 × [S]” value [1] was “No inhibition”. For the same compound, the “% Inhibition of 17(alpha)hydroxylase/lyase, [I] = [S]” value [1] was “No inhibition” and the “inhibition of the 17(alpha)-hydroxylase/17,20-lyase enzyme” value [2] was “did not show any inhibition”.

For `C[C@H](C=NO)[C@H]1CC[C@H]2[C@@H]3CCC4=CC(=O)CC[C@]4(C)[C@H]3CC[C@]12C` [Compound I-23, 4-pregnen-3-oxo-20(beta)-carboxaldehyde oxime], the Ki (17(alpha)-hydroxylase) was 31.2 µM, the “type of inhibition of the hydroxylase” value (17(alpha)-hydroxylase; Lineweaver-Burk) was “competitive inhibition” and the Ki (C17,20-lyase) was 1.07 µM. The “potency versus Ketoconazole, C17,20-lyase” value (C17,20-lyase; FIG. 2, result in words) was “more potent than Ketoconazole”, the “type of inhibition of the lyase” value (C17,20-lyase; Lineweaver-Burk) was “competitive inhibition” and the “potency relative to ketoconazole for rat testicular C17,20-lyase” value (C17,20-lyase; according to the Ki values) was “approximately 3.5 fold”. The “prostatic DHT levels, effect in words” value (DHT in the prostate) was “effective in reducing”, the serum testosterone (serum testosterone; n=8, control 4.03±0.64, P<0.005) was 1.60±0.37 ng/ml serum and the “plasma testosterone concentrations, effect in words” value (serum testosterone; rats) was “effective in reducing plasma testosterone concentrations”. For the same compound, the inhibition at 400 µM ([3]; pH 7.4, read-out: Inhibition of 17(alpha)-hydroxylase/C17,20-lyase (%), [I] = 10 × [S]) was 84%, the inhibition at 40 µM ([3]; pH 7.4, read-out: Inhibition of 17(alpha)-hydroxylase/C17,20-lyase (%), [I] = [S]) was 39.3% and the “selectivity lyase versus hydroxylase” value ([2]; according to Ki values, listed as 4-pregnen-3-one-20(beta)-aldoxime) was “more specific inhibitor for the lyase than for the hydroxylase; also recorded: preferentially inhibited the lyase rather than the hydroxylase step”.

In the case of `CC(=O)N1CCN(c2ccc(OCC3COC(Cn4ccnc4)(c4ccc(Cl)cc4Cl)O3)cc2)CC1` (centres unmarked) [Ketoconazole, reference compound], the Ki (17(alpha)-hydroxylase; rat testicular microsomes, progesterone substrate, 30 min, 37 C, N.I. = no inhibition, read-out: 17(alpha)-hydroxylase Ki) is reported as 39.5 µM, the Ki (C17,20-lyase; rat testicular microsomes, 17(alpha)-hydroxyprogesterone substrate, 30 min, 37 C, N.I. = no inhibition, read-out: C17,20-lyase Ki) is reported as 3.6 µM and the “% Inhibition of 17(alpha)hydroxylase/lyase, [I] = 10 × [S]” value [1] is reported as 65.80%. For the same compound, the “% Inhibition of 17(alpha)hydroxylase/lyase, [I] = [S]” value [1] was 31.53%, the “cortisol production and side-effects, in words” value [4] was “reduces cortisol production and has a number of side-effects” and the “inhibition of 5(alpha)-reductase in the human prostate” value (5(alpha)-reductase) was “did not inhibit”.
